A short description of this experiment: Cytotoxicity against human WHCO1 cells after 24 hrs by MTT assay. It counts as functional, cell-based. To be noted: WHCO1, 24 h.
Turning to `CC(=O)O[C@@H]1[C@@H](OC(C)=O)C(C)=C(CC/C(C)=C/CO)[C@@]2(C)CCCC(C)(C)[C@H]12`, the midpoint of inhibition, the IC50, lay at 25 µM. The value for `CC(=O)OC/C=C(\C)CCC1=C(C)[C@H](OC(C)=O)[C@@H](OC(C)=O)[C@H]2C(C)(C)CCC[C@]12C` was 84 µM. The value for `CC(C)CCC[C@@H](C)[C@H]1CC[C@@H](C2=CC(=O)C3=C[C@H](O)CC[C@]3(C)C2=O)[C@]1(C)CCO` was 3 µM; that for `CC(=O)O[C@H]1CC(C)(C)[C@@H]2[C@H](OC(C)=O)[C@@H](OC(C)=O)C(C)=C(CC/C(C)=C/CO)[C@@]2(C)C1` was 24 µM.

These data come from ChEMBL document CHEMBL1144835, “Bioactive metabolites from the South African marine mollusk Trimusculus costatus” (J Nat Prod, 2008).
